Measured values: publication PMC10620212, “Postprandial glycemic and lipidemic effects of black rice anthocyanin extract fortification in foods of varying macronutrient compositions and matrices” (NPJ Science of Food, 2023)
pIC50: −log10 of the molar value.

Columns and labels:
[1] = target: α-glucosidase; assay: In-vitro starch hydrolase inhibition (starch turbidity assay), α-glucosidase; format: biochemical; conditions: mean (SD)
Procedure: (§1) To determine the inhibitor activities of major ACN species, 50 μL of enzyme solution was mixed with 50 μL of inhibitor solution of different concentrations and incubated for 15 min at 37 °C. The reaction was initiated by mixing 100 μL of 1% gelatinized wheat starch solution into the enzyme-inhibitor mixtures. Changes in turbidity were immediately monitored at 660 nm for 2 h in a microplate reader preincubated at 37 °C, with one reading per minute, while shaking in between readings to minimize starch sedimentation. Enzyme activities were inversely proportional to the AUC for turbidity readings. The percentage inhibition (%I) was defined as:7 %I=(AUCSample−AUCControl)/AUCSample×100 in which AUCSample is the area under the curve for the inhibitor, and AUCControl is the area under the curve without inhibitors.

[2] = target: T1, α-amylase (Sus scrofa, UniProt P00690); assay: In-vitro starch hydrolase inhibition (starch turbidity assay), α-amylase; format: biochemical, porcine; conditions: mean (SD)
T1 sequence (P00690 16-511): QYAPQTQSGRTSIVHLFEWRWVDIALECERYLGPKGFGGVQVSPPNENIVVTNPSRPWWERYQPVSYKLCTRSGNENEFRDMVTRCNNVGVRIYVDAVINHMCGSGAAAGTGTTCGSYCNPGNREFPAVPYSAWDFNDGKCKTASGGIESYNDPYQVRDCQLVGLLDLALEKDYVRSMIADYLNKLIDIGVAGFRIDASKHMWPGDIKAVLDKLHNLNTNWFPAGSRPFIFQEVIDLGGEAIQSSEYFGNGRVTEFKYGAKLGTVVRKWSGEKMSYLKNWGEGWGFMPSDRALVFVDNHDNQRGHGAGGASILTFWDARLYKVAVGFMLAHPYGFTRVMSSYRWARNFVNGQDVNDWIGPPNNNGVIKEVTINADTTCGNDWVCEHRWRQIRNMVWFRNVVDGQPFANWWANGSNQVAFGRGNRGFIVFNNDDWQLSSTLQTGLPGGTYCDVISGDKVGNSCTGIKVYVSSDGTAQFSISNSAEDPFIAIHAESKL
Procedure: as §1

[3] = Bread trial: plasma bioavailability of anthocyanins and phenolic metabolites; format: in vivo, human; conditions: for change in plasma concentration, mean difference between 60 and 120 min: 4-BB group
Procedure: Bioavailability analysis was performed in the Bread trial according to the methods by Kay, et al.[58]. […] The sample was drained off in a vacuum manifold and washed with 2 volumes of acidified water. The remaining ACN extract was eluted with 6 mL acidified methanol, and subsequently brought to dryness at 25 °C under a continuous stream of nitrogen gas. The residue was dissolved in 200 μL of 0.1% v/v formic acid and filtered through a 13 mm 0.22 μm PTFE hydrophilic syringe filter. The resulting solution was analyzed using a reverse-phased C18 Sunfire column (250 × 4.6 mm/5 μm; Waters, Wexford, Ireland) on an HPLC system (Shimadzu Prominence, Shimadzu, Kyoto, Japan) connected with a DAD. The injection volume was 50 μL. The flow rate and oven temperature were maintained at 1 mL/min at 25 °C. A gradient elution process was applied (mobile phase A: 5% v/v formic acid; mobile phase B: 100% acetonitrile): 0% B for 5 min, 10% B at 20 min, 13% B at 40 min, 20% B at 44 min, 25% B at 50 min, and 100% B at 55 min. Detection of ACNs was performed at 520 nm; while its metabolites, ferulic acid, vanillic acid, and protocatechuic acid were detected at 280 nm. Identification and quantification of each ACN and metabolite were based on matching the retention time and peak areas with the external calibration curve of respective standards.

[4] = design: method as in PMID 24602005, PMID 25347327; conditions: previous reports; cited from earlier work

## OC[C@H]1O[C@@H](Oc2cc3c(O)cc(O)cc3[o+]c2-c2ccc(O)c(O)c2)[C@H](O)[C@@H](O)[C@@H]1O [C3G, cyanidin-3-glucoside]
[1]
  pIC50: 2.95
[2]
  pIC50: 3.44

## C[C@@H]1O[C@@H](OC[C@H]2O[C@@H](Oc3cc4c(O)cc(O)cc4[o+]c3-c3ccc(O)c(O)c3)[C@H](O)[C@@H](O)[C@@H]2O)[C@H](O)[C@H](O)[C@H]1O [C3R, cyanidin-3-rutinoside]
[1]
  pIC50: 3.04
[2]
  pIC50: 3.32

## COc1cc(/C=C/C(=O)O)ccc1O [FA, ferulic acid]
[3]
  change in plasma concentration, mean difference between 60 and 120 min: 1.08
[4]
  time of peak plasma concentrations: 0.5 to 1 h

## COc1cc(-c2[o+]c3cc(O)cc(O)c3cc2O[C@@H]2O[C@H](CO)[C@@H](O)[C@H](O)[C@H]2O)ccc1O [P3G, peonidin-3-glucoside]
[1]
  pIC50: 2.87
[2]
  pIC50: 3.19

## O=C(O)c1ccc(O)c(O)c1 [PCA, protocatechuic acid]
[3]; Bread trial
  share of total polyphenols in plasma at 60 min peak concentrations: 93.9%
[4]
  time of peak plasma concentrations: 1 to 2 h

## COc1cc(C(=O)O)ccc1O [VA, vanillic acid]
[3]
  change in plasma concentration, mean difference between 60 and 120 min: 0.439
[4]
  time of peak plasma concentrations: 0.5 to 1 h
